Results reported in patent publication EP4635951A1, “SALT-TYPE GLP-1 RECEPTOR AGONIST, CRYSTAL FORM THEREOF, PREPARATION METHOD THEREFOR, PHARMACEUTICAL COMPOSITION THEREOF, AND USE THEREOF” (Hangzhou Zhongmeihuadong Pharmaceutical Co., Ltd., priority 2022, dated 2024).
Converted amounts (≈) assume the structure as drawn.

Legend:
Equilibrium solubility = type: physicochemical; conditions: 37°C
Description: After 24 hours, samples were taken. The samples were centrifuged for separation, and the supernatant after filtration was used for solubility determination.

Hygroscopicity by DVS = type: physicochemical; conditions: 25°C, 80%RH
Human GLP-1R = biological target: T1, Human GLP-1R (Homo sapiens, UniProt P43220); test: GLP-1R agonistic activity, HTRF cAMP assay in 293A GFP-GLP-1R cells; type: cell-based; conditions: result in words
T1 construct: expressed in transfected cells; host or cells: 293A cells stably expressing GLP-1R-GFP
T1 sequence (P43220 24-463): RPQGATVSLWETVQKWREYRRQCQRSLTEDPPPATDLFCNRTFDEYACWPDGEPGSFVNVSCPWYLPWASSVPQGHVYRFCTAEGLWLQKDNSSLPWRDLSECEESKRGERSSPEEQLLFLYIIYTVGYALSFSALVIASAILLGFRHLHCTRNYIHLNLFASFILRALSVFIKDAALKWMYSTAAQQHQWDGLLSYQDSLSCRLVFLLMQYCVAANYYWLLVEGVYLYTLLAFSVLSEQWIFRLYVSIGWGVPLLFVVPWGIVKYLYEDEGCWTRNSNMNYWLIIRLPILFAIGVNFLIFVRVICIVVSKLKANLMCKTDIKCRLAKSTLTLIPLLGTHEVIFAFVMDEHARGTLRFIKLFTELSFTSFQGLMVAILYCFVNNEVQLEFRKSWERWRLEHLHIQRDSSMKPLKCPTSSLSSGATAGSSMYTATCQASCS
Text: The method was a competitive immunoassay.

Dynamic solubility = conditions: for Dynamic solubility in water: 37°C±2°C
[1] = Solid-state stability, long-term and accelerated conditions; type: physicochemical; conditions: for Purity / purity decrease: 10 days
Text: The free Compound I was in a crystalline form, and had the XRPD pattern indicated by the arrow in Figure 50.

[2] = High-temperature stability test; type: physicochemical
High-humidity stability = type: physicochemical
Pressure stability = type: physicochemical
[3] = Suspension competition tests between Crystal Form A and Crystal Form P; type: physicochemical; conditions: room temperature and 50°C
Description: The suspensions of Compound Z that had been equilibrated for 2 hours under the corresponding temperature and solvent conditions were filtered to obtain saturated solutions of Compound Z under different temperature and solvent conditions, and then solid mixtures of Crystal Forms A and P of Compound Z were added. After the suspension competition was carried out for 1 day, the solids were separated for XRPD characterization.

[4] = Water activity stability of crystal form; type: physicochemical
[5] = listed as Compound I in the amorphous form
[6] = FaSSGF, 37 °C, fassgf or other biorelevant, thermodynamic from solid
[7] = fassif, 37 °C, thermodynamic from solid

O=C(O)c1ccc2nc(CN3CCC(c4cccc(OCc5ccc(C6COC6)cc5F)n4)CC3)n(C[C@@H]3CCO3)c2c1 [Amorphous form of Compound I]
solubility thermodynamic at 24 h (Equilibrium solubility; fassif, FaSSIF (fasted-state simulated intestinal fluid)): 150 µg/mL (≈ 256 µM) | solubility thermodynamic at 24 h (Equilibrium solubility; fessif, FeSSIF (fed-state simulated intestinal fluid)): 800 µg/mL (≈ 1360 µM) | solubility thermodynamic at 24 h (Equilibrium solubility; purified water, H2O (purified water)): 430 µg/mL (≈ 733 µM) | solubility thermodynamic at 24 h (Equilibrium solubility; sgf (simulated gastric fluid)): 410 µg/mL (≈ 699 µM) | hygroscopicity class (Hygroscopicity by DVS; [5]): hygroscopic (a weight gain of 2%-15% indicates hygroscopic) | weight gain (water absorbed) (Hygroscopicity by DVS; [5]): 4.029%

O=C(O)c1ccc2nc(CN3CCC(c4cccc(OCc5ccc(C6COC6)cc5F)n4)CC3)n(C[C@@H]3CCO3)c2c1 [Compound I, (S)-2-((4-(6-((2-fluoro-4-(oxetan-3-yl)benzyl)oxy)pyridin-2-yl)piperidin-1-yl)methyl)-1-(oxetan-2-ylmethyl)-1H-benzo[d]imidazole-6-carboxylic acid]
agonistic effect on GLP-1R (Human GLP-1R): strong agonistic effect | solubility at 1 h (physchem; [6]): 100 µg/mL (≈ 170 µM) | solubility at 2 h (physchem; [6]): 90 µg/mL (≈ 153 µM) | solubility at 4 h (physchem; [6]): 110 µg/mL (≈ 188 µM) | solubility at 24 h (physchem; [6]): 100 µg/mL (≈ 170 µM) | solubility at 1 h (physchem; [7]): 40 µg/mL (≈ 68.2 µM) | solubility at 4 h (physchem; [7]): 120 µg/mL (≈ 205 µM) | solubility at 24 h (physchem; [7]): 210 µg/mL (≈ 358 µM) | XRPD of Residual Solid (Dynamic solubility; FaSSGF, 1 h, listed as Free Compound I): Crystal Form A of the hydrochloride of Compound I | XRPD of Residual Solid (Dynamic solubility; FaSSGF, 2 h, listed as Free Compound I): Crystal Form A of the hydrochloride of Compound I | Whether the crystal form changed (Dynamic solubility; FaSSIF, 2 h): YES | XRPD of Residual Solid (Dynamic solubility; FaSSIF, 2 h): Crystal Form A of Compound I | Dynamic solubility in water (Dynamic solubility; FaSSIF, 2 h, listed as Free Compound I): 70 µg/mL | Whether the crystal form changed (Dynamic solubility; FaSSIF, 4 h): YES | XRPD of Residual Solid (Dynamic solubility; FaSSIF, 4 h): Crystal Form A of Compound I | Whether the crystal form changed (Dynamic solubility; FaSSIF, 24 h): YES | XRPD of Residual Solid (Dynamic solubility; FaSSIF, 24 h): Crystal Form A of Compound I | Whether the crystal form changed (Dynamic solubility; H2O (water), 1 h): YES | XRPD of Residual Solid (Dynamic solubility; H2O (water), 1 h): Crystal Form A of Compound I | Dynamic solubility in water (Dynamic solubility; H2O (water), 4 h, listed as Free Compound I): 30 µg/mL | Dynamic solubility in water (Dynamic solubility; H2O (water), 24 h, listed as Free Compound I): 30 µg/mL

O=C(O)c1ccc2nc(CN3CCC(c4cccc(OCc5ccc(C6COC6)cc5F)n4)CC3)n(C[C@@H]3CCO3)c2c1 [Crystal Form A of Compound Z]
solubility thermodynamic at 24 h (Equilibrium solubility; FaSSIF (fasted-state simulated intestinal fluid)): 1190 µg/mL (≈ 2030 µM) | solubility thermodynamic at 24 h (Equilibrium solubility; FeSSIF (fed-state simulated intestinal fluid)): 1170 µg/mL (≈ 1990 µM) | solubility thermodynamic at 24 h (Equilibrium solubility; H2O (purified water)): 1940 µg/mL (≈ 3310 µM) | solubility thermodynamic at 24 h (Equilibrium solubility; SGF (simulated gastric fluid)): 1000 µg/mL (≈ 1700 µM) | hygroscopicity class (Hygroscopicity by DVS): slightly hygroscopic (a weight gain of 0.2%-2% indicates slightly hygroscopic) | weight gain (water absorbed) (Hygroscopicity by DVS): 1.696% | Purity ([1]; 25°C/60%RH): 97.38 % Area | Purity ([1]; 40°C/75%RH): 97.35 % Area | initial purity ([1]; HPLC, before storage): 97.41 % Area | purity decrease ([1]; accelerated conditions (40°C/75%RH)): no obvious decrease | purity decrease ([1]; long-term conditions (25°C/60%RH)): no obvious decrease | purity decrease after 1 day ([2]; 60°C, 1 day): no obvious decrease | purity after 1 day ([2]; HPLC purity (% area), 60°C, 1 day): 97.34% | initial purity ([2]; HPLC purity (% area), before 60°C): 97.41% | purity decrease (High-humidity stability; 90%RH, 10 days): no obvious decrease | initial purity (High-humidity stability; HPLC purity (% area), before high humidity): 97.41% | purity decrease (Pressure stability; 1000 Mpa, 5 minutes): no obvious decrease | initial purity (Pressure stability; HPLC purity (% area), before pressing): 97.31% | thermodynamic stability relative to Crystal Form P [3]: thermodynamically more stable | water activity aw at which the crystal form is stable [4]: ≤ 0.388 | solubility at 1 h (physchem; [6]): 40 µg/mL (≈ 68.2 µM) | solubility at 2 h (physchem; [6]): 140 µg/mL (≈ 239 µM) | solubility at 4 h (physchem; [6]): 120 µg/mL (≈ 205 µM) | solubility at 2 h (physchem; fassif): 130 µg/mL (≈ 222 µM) | solubility at 1 h (physchem; [7]): 130 µg/mL (≈ 222 µM) | solubility at 4 h (physchem; [7]): 110 µg/mL (≈ 188 µM) | solubility at 24 h (physchem; [7]): 280 µg/mL (≈ 477 µM) | solubility at 1 h (physchem; water): 5500 µg/mL (≈ 9380 µM) | solubility at 2 h (physchem; water): 1380 µg/mL (≈ 2350 µM) | solubility (physchem; water, 37 °C, fassgf or other biorelevant, thermodynamic from solid): 60 µg/mL (≈ 102 µM) | Whether the crystal form changed (Dynamic solubility; FaSSGF, 1 h): YES | XRPD of Residual Solid (Dynamic solubility; FaSSGF, 1 h): Amorphous | Whether the crystal form changed (Dynamic solubility; FaSSGF, 2 h): YES | XRPD of Residual Solid (Dynamic solubility; FaSSGF, 2 h): Amorphous | Whether the crystal form changed (Dynamic solubility; FaSSGF, 4 h): YES | XRPD of Residual Solid (Dynamic solubility; FaSSGF, 4 h): Crystal Form A of the hydrochloride of Compound I | Whether the crystal form changed (Dynamic solubility; FaSSGF, 24 h): YES | XRPD of Residual Solid (Dynamic solubility; FaSSGF, 24 h): Crystal Form A of the hydrochloride of Compound I | Whether the crystal form changed (Dynamic solubility; FaSSIF, 1 h): YES | XRPD of Residual Solid (Dynamic solubility; FaSSIF, 1 h): Crystal Form A of Compound I | Whether the crystal form changed (Dynamic solubility; H2O (water), 2 h): YES | XRPD of Residual Solid (Dynamic solubility; H2O (water), 2 h): Crystal Form A of Compound I | Whether the crystal form changed (Dynamic solubility; H2O (water), 4 h): YES | XRPD of Residual Solid (Dynamic solubility; H2O (water), 4 h): Crystal Form A of Compound I | Dynamic solubility in water (Dynamic solubility; H2O (water), 4 h, 240 min): 1230 µg/mL | Whether the crystal form changed (Dynamic solubility; H2O (water), 24 h): YES | XRPD of Residual Solid (Dynamic solubility; H2O (water), 24 h): Crystal Form A of Compound I | Dynamic solubility in water (Dynamic solubility; H2O (water), 24 h, 1440 min): 1330 µg/mL
